Reference: patent US12527774B2, “Estrogen-related receptor alpha modulators” (LEAD PHARMA HOLDING B.V., priority 2019, dated 2026)

Assays:
[1] = tested on: B16F10 melanoma; assay: B16F10 Melanoma Syngeneic Mouse Model; type: in vivo; conditions: 30 mpk p.o., q.d., C57BL/6 mice; for Tumor Growth Inhibition (%): Day 13
Description: B16F10 Melanoma Syngeneic Mouse Model
Examples inhibitors 100, 191, 192, 194 and 196 were tested for their ability to inhibit tumor growth in a B16F10 melanoma syngeneic mouse model.
Cell line and tumor model: B16F10 melanoma cell line derived allograft model in C57BL/6 mice.
Mouse B16F10 melanoma cells were sourced from American Type Culture Collection (ATCC), USA. Cells were grown in DMEM (Invitrogen, Catalogue No. 31600-034) supplemented with 10% FBS (Invitrogen, Catalogue No. 10438-026), and 1% penicillin streptomycin (Thermo Fisher Scientific, Catalogue No. 15140-122). To establish allografts, the cells were harvested by trypsinization when they reach around 70 to 80% confluence and 0.1 million B16F10 cells were suspended in 50 μl of serum free medium and mixed at 1:1 ratio with matrigel before implanting subcutaneously into the dorsal right flank of mice using a 1 mL BD syringe attached to a 24-gauge needle.
B16F10 tumor grafts were measured after 5 days of cell inoculation once they became palpable. When the average tumor volume reached around 58 mm^3, animals were dosed after randomization into different treatment groups keeping tumor volume and number of animals in such a way so that the average tumor volume of each group remained same across the groups. Dosing was performed on a per kilogram weight basis, by mouth (per os, p.o.) once a day (quaque die, q.d).
Tumor dimensions—length (I) and breadth (b)—were measured by caliper on the day of animal randomization based on tumor volume (Day 1) and thrice weekly thereafter until study termination. Tumor volumes were calculated using the formula b^2*I*0.52 where l=length, b=breadth (Dusan Djokovic et al., BMC Cancer, 2010, 10:641). Tumor growth inhibition was calculated after normalizing the tumor volume on a given day to that on Day 1.
Test items administration was started when tumor volume reached an average of 58 mm^3.
Administration of test items was carried out until Day 14 and measurement of tumor volume was carried out until Day 13 for computing percent tumor growth inhibition (TGI).

[2] = molecular target: full length ERRα (Homo sapiens (Human), UniProt P11474); assay: Full Length ERRα Reporter Gene Assay; type: cell-based; conditions: SK-BR-3 cells, ERRα-RE luciferase reporter, overnight incubation; read-out: mean pIC50 (converted)
From the text: Full Length ERRα Reporter Gene Assay
A method was established to quantitatively screen the potency of compounds with inverse agonistic activity on the nuclear receptor ERRα of the human species. The assay allows intra-cellular screening of ERRα inverse agonists in SK-BR-3 cells using an over-expression construct coding full length ERRα and a reporter construct containing an ERRα Response Element (RE) and a luciferase gene for read out. The activity is expressed in log IC50 values and can be used to determine SAR of compound families or to de-select compounds.
In this assay, reporter cells are obtained by transient co-transfection of two constructs in SK-BR-3 cells using standard transfection techniques. The first construct contains a response element of the nuclear receptor ERRα (Plasmid pLP2175, Reporter construct ERRα-RE/luc2P, cloned variant of ERRα_v2_synthRE, Switchgear Genomics, Catalog Number S900089). This sequence drives the transcription of the luciferase reporter gene in response to binding of an ERRα protein encoded by the second construct (Plasmid pLP2124: full length ERRα expression construct using pcDNA3.1/Hygro(+) as background, Invitrogen Catalog Number V87020).
The day after transfection, cells were plated into 96 well plates, test compound was added and the plates were incubated overnight. Subsequently, the firefly luciferase activity was quantified using luciferase detection reagent and luminescence readout.
Detailed Assay Description
Transfection is performed on pre-seeded SK-BR-3 cells in a T175 flask. One transfected T175 flask is sufficient for seeding 3 to 4 MW96 plates the next day, depending on the confluency of the transfected cells.
Two different media are used in this protocol for cell treatment: 1) Culture medium, i.e. McCoy's 5a with phenol red (BioWhittaker Supplier Number 12-688F), 10% FBS and 1× Penstrep.; and, 2) Assay medium, i.e. McCoy's 5a Medium phenol red free (HyClone Product Code SH30270.01) with 2% Charcoal Stripped FBS and 1× Penstrep. Compound dilutions are prepared in assay medium.
Cells are seeded at least 2 days in advance to allow the cells to adhere well to flask before transfection. Cells should be 50-80% confluent at the day of transfection.
SKBR3 cells were transfected with the transcriptional reporter construct pLP2175 and the ERRα expression construct pLP2124 (as described above).
68 μL of Lipofectamine LTX transfection reagent (Invitrogen Catalog Number 15338-100) was added dropwise to 8.9 ml Opti-MEM I Reduced Serum Medium (Gibco Catalog Number 51985-026) and incubated at room temperature for 5 to 20 minutes. 8.9 ml of this reagent mixture was added to 22 μg pLP2175+22 μg pLP2124 (ratio 1:1 and total volume 10 ml), and incubated at room temperature for 25 minutes.
10 minutes before adding the transfection mix to SKBR3 cells in a T175 flask, the culture medium was refreshed with 20 mL culture medium. Subsequently, the 10 mL DNA-Opti-MEM-Lipofectamine mixture was gently added to the cells, followed by overnight (16-24 hours) incubation at 37° C. and 5% CO2.
To harvest SKBR3 cells from a T175 flask, first the medium was removed. Subsequently, cells were washed with Phosphate Buffered Saline (PBS) (Lonza), after which the PBS was removed. To dissociate the cells, 2 ml of TrypLE Express (Invitrogen) was added to the flask, followed by incubation at 37° C. for 5 minutes. The flask was tapped until cells were detached from the bottom. Cells were collected in 8 mL of culture medium (McCoy's 5α, 10% FBS, penstrep), to achieve a single cell suspension. After cell count, cells were spun down for 5 minutes at 300 g. Next cell pellets were re-suspended to 25000 cells/80 μl assay medium (McCoy's 5a phenol red free, 2% charcoal stripped FBS, penstrep).
For compound screening, the cells were harvested (as described above). 80 μL of cell suspension (25,000 cells) was plated per well into a white, flat bottom, tissue culture treated, 96 well screening plates (Greiner). […]

[3] = molecular target: ERRα ligand binding domain (ERRα-LBD) (Homo sapiens (Human), UniProt P11474); assay: ERRα AlphaScreen Assay; type: biochemical; conditions: disruption of binding of ERRα-LBD protein to biotin-PGC1α-3 co-activator peptide; for IC50: read-out: mean pIC50 (converted)
Outline: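 Disruption of co-activator binding read by AlphaScreen: compounds in triplicate, 1% DMSO, Tris pH 7.5 buffer, room temperature. Bacterially expressed 6His-SUMO-ERRα-LBD at 0.81 nM with beads for 1 h, then 15 nM biotinylated PGC1α peptide for 2 h. IC50 from four-parameter fits, averaged as pIC50.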

Chain of ERRα ligand binding domain (ERRα-LBD) (P11474 193-421): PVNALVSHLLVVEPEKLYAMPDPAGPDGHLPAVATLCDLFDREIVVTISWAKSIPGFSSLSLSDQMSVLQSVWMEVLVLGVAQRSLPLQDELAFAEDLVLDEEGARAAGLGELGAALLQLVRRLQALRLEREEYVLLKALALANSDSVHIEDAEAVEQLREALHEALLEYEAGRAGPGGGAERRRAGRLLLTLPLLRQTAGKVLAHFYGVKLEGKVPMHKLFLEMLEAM
Chain of full length ERRα (P11474 whole entry): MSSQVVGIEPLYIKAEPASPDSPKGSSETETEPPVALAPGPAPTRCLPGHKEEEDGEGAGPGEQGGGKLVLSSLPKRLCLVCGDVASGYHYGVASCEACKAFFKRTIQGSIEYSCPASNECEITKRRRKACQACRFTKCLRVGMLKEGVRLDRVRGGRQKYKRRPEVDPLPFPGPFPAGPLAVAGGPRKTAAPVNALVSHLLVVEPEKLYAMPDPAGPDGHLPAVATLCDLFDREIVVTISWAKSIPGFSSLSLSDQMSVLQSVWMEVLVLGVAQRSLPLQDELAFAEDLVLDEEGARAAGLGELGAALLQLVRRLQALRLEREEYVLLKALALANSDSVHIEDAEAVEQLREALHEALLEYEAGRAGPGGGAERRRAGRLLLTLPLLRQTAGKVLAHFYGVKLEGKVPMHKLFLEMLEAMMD

| Structure (SMILES) | IC50 [2] | mean pIC50 [3] | IC50 [3] | Tumor Volume (mm^3) Day 13 [1] | Tumor Growth Inhibition (%) [1] |
| --- | --- | --- | --- | --- | --- |
| COc1cc(C2CC(=O)Nc3n[nH]cc32)ccc1OCc1ccc(CCCO)cc1C(F)(F)F (centres unmarked) [Example 149, 4-(4-{[4-(3-hydroxypropyl)-2-(trifluoromethyl)phenyl]methoxy}-3-methoxyphenyl)-2H,4H,5H,6H, 7H-pyrazolo[3,4-b]pyridin-6-one] | ≤ 316 nM | ≥ 8 | – | – | – |
| COc1cc(C2CC(=O)Nc3n[nH]cc32)ccc1OCc1ccc(CCN)cc1C(F)(F)F (centres unmarked) [Example 150, 4-(4-{[4-(2-aminoethyl)-2-(trifluoromethyl)phenyl]methoxy}-3-methoxyphenyl)-2H,4H,5H,6H, 7H-pyrazolo[3,4-b]pyridin-6-one] | ≤ 316 nM | – | 100 to 1000 nM | – | – |
| COc1cc(C2CC(=O)Nc3n[nH]cc32)ccc1OCc1ccc(CCO)cc1C(F)(F)F (centres unmarked) [Example 155, 4-(4-{[4-(2-hydroxyethyl)-2-(trifluoromethyl)phenyl]methoxy}-3-methoxyphenyl)-2H,4H,5H,6H, 7H-pyrazolo[3,4-b]pyridin-6-one] | ≤ 316 nM | ≥ 8 | – | – | – |
| COc1cc(C2CC(=O)Nc3n[nH]nc32)ccc1OCc1ccc(CCO)cc1C(F)(F)F (centres unmarked) [Example 157, 7-(4-{[4-(2-hydroxyethyl)-2-(trifluoromethyl)phenyl]methoxy}-3-methoxyphenyl)-2H,4H,5H,6H, 7H-[1,2,3]triazolo[4,5-b]pyridin-5-one] | ≤ 316 nM | ≥ 8 | – | – | – |
| COc1cc(C2CC(=O)Nc3n[nH]cc32)ccc1OCc1ccc(C=O)cc1C(F)(F)F (centres unmarked) [Example 159, 4-[(2-methoxy-4-{6-oxo-2H,4H,5H,6H,7H-pyrazolo[3,4-b]pyridin-4-yl}phenoxy)methyl]-3-(trifluoromethyl)benzaldehyde] | ≤ 316 nM | – | 10 to 100 nM | – | – |
| COc1cc(C2CC(=S)Nc3n[nH]cc32)ccc1OCc1ccccc1C(F)(F)F (centres unmarked) [Example 166, 4-(3-methoxy-4-{[2-(trifluoromethyl)phenyl]methoxy}phenyl)-2H,4H,5H,6H,7H-pyrazolo[3,4-b]pyridine-6-thione] | ≤ 316 nM | ≥ 8 | – | – | – |
| COc1cc(-c2cc(=O)[nH]c3n[nH]cc23)ccc1OCc1ccccc1C(F)(F)F [Example 169, 4-(3-methoxy-4-{[2-(trifluoromethyl)phenyl]methoxy}phenyl)-2H,6H,7H-pyrazolo[3,4-b]pyridin-6-one] | ≤ 316 nM | ≥ 8 | – | – | – |
| COc1ccc(COc2ccc(-c3cc(=O)[nH]c4n[nH]cc34)cc2OC)c(C(F)(F)F)c1 [Example 170, 4-(3-methoxy-4-{[4-methoxy-2-(trifluoromethyl)phenyl]methoxy}phenyl)-2H,6H, 7H-pyrazolo[3,4-b]pyridin-6-one] | ≤ 316 nM | ≥ 8 | – | – | – |
| COc1cc(-c2cc(=O)[nH]c3n[nH]cc23)ccc1OCc1ccc(C(C)=O)cc1C(F)(F)F [Example 174, 4-(4-{[4-acetyl-2-(trifluoromethyl)phenyl]methoxy}-3-methoxyphenyl)-2H,6H, 7H-pyrazolo[3,4-b]pyridin-6-one] | ≤ 316 nM | ≥ 8 | – | – | – |

Further lines, with some results ahead:

| IC50 [2] | mean pIC50 [3] | IC50 [3] | Structure (SMILES) | Tumor Volume (mm^3) Day 13 [1] | Tumor Growth Inhibition (%) [1] |
| --- | --- | --- | --- | --- | --- |
| ≤ 316 nM | ≥ 8 | – | COc1cc(C2CC(=O)Nc3n[nH]cc32)ccc1COc1ccc(Cl)cc1C(F)(F)F (single isomer, unassigned; (-)) [Example 194, (−)-4-(4-{[4-chloro-2-(trifluoromethyl)phenoxy]methyl}-3-methoxyphenyl)-2H,4H,5H,6H,7H-pyrazolo[3,4-b]pyridin-6-one] | 870 ± 152 mm^3 | 53% |
| ≤ 316 nM | – | – | COc1cc(C2CC(=O)Nc3n[nH]cc32)ccc1COc1ccc(C(F)F)cc1C(F)(F)F (single isomer, unassigned; (-)) [Example 196, (−)-4-(4-{[4-(difluoromethyl)-2-(trifluoromethyl)phenoxy]methyl}-3-methoxyphenyl)-2H,4H,5H,6H,7H-pyrazolo[3,4-b]pyridin-6-one] | 755 ± 135 mm^3 | 60% |
| ≤ 316 nM | ≥ 8 | – | CCc1ccc(COc2ccc(-c3cc(=O)[nH]c4n[nH]cc34)cc2OC)c(C(F)(F)F)c1 [Example 175, 4-(4-{[4-ethyl-2-(trifluoromethyl)phenyl]methoxy}-3-methoxyphenyl)-2H,6H, 7H-pyrazolo[3,4-b]pyridin-6-one] | – | – |
| ≤ 316 nM | ≥ 8 | – | COc1cc(-c2cc(=O)[nH]c3n[nH]cc23)ccc1OCc1ccc(CCO)cc1C(F)(F)F [Example 176, 4-(4-{[4-(2-hydroxyethyl)-2-(trifluoromethyl)phenyl]methoxy}-3-methoxyphenyl)-2H, 6H, 7H-pyrazolo[3,4-b]pyridin-6-one] | – | – |
| ≤ 316 nM | ≥ 8 | – | COc1cc(-c2cc(=O)[nH]c3n[nH]cc23)ccc1OCc1cccc(OC)c1C(F)(F)F [Example 177, 4-(3-methoxy-4-{[3-methoxy-2-(trifluoromethyl)phenyl]methoxy}phenyl)-2H, 6H, 7H-pyrazolo[3,4-b]pyridin-6-one] | – | – |
| ≤ 316 nM | ≥ 8 | – | COc1ccc(C(F)(F)F)c(COc2ccc(-c3cc(=O)[nH]c4n[nH]cc34)cc2OC)c1 [Example 178, 4-(3-methoxy-4-{[5-methoxy-2-(trifluoromethyl)phenyl]methoxy}phenyl)-2H,6H,7H-pyrazolo[3,4-b]pyridin-6-one] | – | – |
| ≤ 316 nM | ≥ 8 | – | COc1cc(-c2cc(=O)[nH]c3n[nH]cc23)ccc1OCc1ccc(F)cc1C(F)(F)F [Example 179, 4-(4-{[4-fluoro-2-(trifluoromethyl)phenyl]methoxy}-3-methoxyphenyl)-2H,6H, 7H-pyrazolo[3,4-b]pyridin-6-one] | – | – |
